According to patent publication US20240116922A1, “IMIDAZO[1,2-A]PYRIDINE DERIVATIVES AS IRAK4 INHIBITORS AND THEIR USE IN THE TREATMENT OF DISEASE” (BIOGEN MA INC., priority 2020, published 2024):
Converted amounts (≈) assume the structure as drawn. Counter-ions that a name gives are not always drawn.

Key:
IRAK4 = IRAK4 (Homo sapiens (Human), UniProt Q9NWZ3); assay: IRAK4 MSD biochemical assay (2-hour 1 mM ATP); details: 0.1 nM IRAK4, 1 mM ATP, 2 hour at room temperature
[1] = Kinetic solubility assay (CLND), pH 6.8; type: physicochemical; details: aqueous buffer, kinetic from dmso stock; potassium phosphate buffer pH 6.8, 2% DMSO, 24 hours at ambient temperature
[2] = Kpuu assay (in vivo brain-to-plasma unbound partition); details: brain (unbound) versus plasma (unbound); intravenous infusion 4 to 24 h; unbound brain/plasma ratio; read-out: Brain Kpu, u
MDR1 = MDR1 (Homo sapiens (Human), UniProt P08183); assay: in vitro; details: MDCK-MDR1
MDR1, sequence (P08183 whole entry): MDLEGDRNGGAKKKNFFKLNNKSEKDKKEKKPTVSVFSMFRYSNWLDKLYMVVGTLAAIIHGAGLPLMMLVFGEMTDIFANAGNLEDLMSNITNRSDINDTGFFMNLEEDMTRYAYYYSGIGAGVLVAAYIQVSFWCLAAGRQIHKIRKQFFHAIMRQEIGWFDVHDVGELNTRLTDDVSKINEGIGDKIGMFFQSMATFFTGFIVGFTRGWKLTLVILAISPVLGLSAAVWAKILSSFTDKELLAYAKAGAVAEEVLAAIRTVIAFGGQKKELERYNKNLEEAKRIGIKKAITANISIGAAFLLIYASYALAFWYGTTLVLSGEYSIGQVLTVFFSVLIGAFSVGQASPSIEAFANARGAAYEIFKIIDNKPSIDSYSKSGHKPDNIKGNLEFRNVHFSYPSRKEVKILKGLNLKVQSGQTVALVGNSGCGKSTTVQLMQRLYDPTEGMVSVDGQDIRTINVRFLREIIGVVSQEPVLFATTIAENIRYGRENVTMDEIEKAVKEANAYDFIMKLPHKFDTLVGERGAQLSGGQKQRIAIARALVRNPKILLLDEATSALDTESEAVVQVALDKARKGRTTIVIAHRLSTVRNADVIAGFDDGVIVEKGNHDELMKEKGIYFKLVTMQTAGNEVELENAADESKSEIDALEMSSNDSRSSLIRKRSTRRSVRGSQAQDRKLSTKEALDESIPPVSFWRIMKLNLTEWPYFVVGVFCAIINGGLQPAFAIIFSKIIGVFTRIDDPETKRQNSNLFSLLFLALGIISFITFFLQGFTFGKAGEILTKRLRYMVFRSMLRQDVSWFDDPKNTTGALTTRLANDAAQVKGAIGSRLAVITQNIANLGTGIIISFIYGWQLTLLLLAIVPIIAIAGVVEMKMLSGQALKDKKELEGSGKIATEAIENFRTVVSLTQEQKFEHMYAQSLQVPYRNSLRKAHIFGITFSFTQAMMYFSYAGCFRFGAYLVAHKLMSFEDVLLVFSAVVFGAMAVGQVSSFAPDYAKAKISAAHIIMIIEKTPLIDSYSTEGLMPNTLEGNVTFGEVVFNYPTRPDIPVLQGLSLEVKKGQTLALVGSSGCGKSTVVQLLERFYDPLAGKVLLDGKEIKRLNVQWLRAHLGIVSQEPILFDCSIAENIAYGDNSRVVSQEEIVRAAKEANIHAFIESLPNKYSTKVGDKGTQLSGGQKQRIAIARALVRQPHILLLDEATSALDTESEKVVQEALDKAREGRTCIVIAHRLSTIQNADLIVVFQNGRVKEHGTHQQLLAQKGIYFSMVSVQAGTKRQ

IRAK4, sequence (Q9NWZ3 whole entry): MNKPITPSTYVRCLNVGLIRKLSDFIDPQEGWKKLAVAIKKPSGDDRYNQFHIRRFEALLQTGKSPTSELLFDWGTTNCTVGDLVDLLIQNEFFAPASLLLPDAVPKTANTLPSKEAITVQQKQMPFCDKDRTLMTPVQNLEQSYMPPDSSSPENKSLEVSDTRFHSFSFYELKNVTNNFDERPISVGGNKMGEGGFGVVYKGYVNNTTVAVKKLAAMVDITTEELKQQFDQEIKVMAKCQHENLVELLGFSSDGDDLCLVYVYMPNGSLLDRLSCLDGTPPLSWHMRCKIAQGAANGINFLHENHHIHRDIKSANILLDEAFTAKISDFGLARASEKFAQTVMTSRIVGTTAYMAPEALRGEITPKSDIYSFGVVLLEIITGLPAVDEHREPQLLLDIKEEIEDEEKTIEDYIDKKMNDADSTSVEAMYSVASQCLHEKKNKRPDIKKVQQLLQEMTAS

CC(C)Oc1cc2nc([C@@]34CC[C@@](C)(C3)OC4)cn2cc1C(=O)Nc1ccn(C)n1 (single isomer, unassigned) [Comparator 3C, reference compound]
IC50 (IRAK4): 2.3 nM
solubility kinetic at 24 h [1]: 28.5 µg/mL (≈ 69.6 µM)
Kpuu (unbound brain-to-plasma partition coefficient) [2]: 0.3
efflux ratio at 120 min, 1 μM (MDR1): 6.3

CC(C)Oc1cc2nc([C@@]34CC[C@@](C)(C3)OC4)cn2cc1C(=O)Nc1cccn(C2CC2)c1=O (single isomer, unassigned) [Example 4]
IC50 (IRAK4): 0.2 nM
solubility kinetic at 24 h [1]: 57.4 µg/mL (≈ 124 µM)
Kpuu (unbound brain-to-plasma partition coefficient) [2]: 0.26
efflux ratio at 120 min, 1 μM (MDR1): 7.1

CC(C)Oc1cc2nc([C@]34CC[C@](C)(C3)OC4)cn2cc1C(=O)Nc1cccn(C2CC2)c1=O (single isomer, unassigned) [Example 5]
IC50 (IRAK4): 0.1 nM
solubility kinetic at 24 h [1]: 32.9 µg/mL (≈ 71.1 µM)
Kpuu (unbound brain-to-plasma partition coefficient) [2]: 0.38
efflux ratio at 120 min, 1 μM (MDR1): 6.1

CC(C)Oc1cc2nc([C@@]34CC[C@@](CF)(C3)OC4)cn2cc1C(=O)Nc1cccn(C2CC2)c1=O (single isomer, unassigned) [Example 7]
IC50 (IRAK4): 0.3 nM
solubility kinetic at 24 h [1]: 79.2 µg/mL (≈ 165 µM)
Kpuu (unbound brain-to-plasma partition coefficient) [2]: 0.66
efflux ratio at 120 min, 1 μM (MDR1): 5

CC(C)Oc1cc2nc([C@]34CC[C@](CF)(C3)OC4)cn2cc1C(=O)Nc1cccn(C2CC2)c1=O (single isomer, unassigned) [Example 8]
IC50 (IRAK4): 0.3 nM
solubility kinetic at 24 h [1]: 75.9 µg/mL (≈ 158 µM)
Kpuu (unbound brain-to-plasma partition coefficient) [2]: 0.49
efflux ratio at 120 min, 1 μM (MDR1): 5.4

CC[C@H](C)Oc1cc2nc(C34COC(CF)(C3)C4)cn2cc1C(=O)Nc1cccn(C2CC2)c1=O (single isomer, unassigned) [Example 15]
IC50 (IRAK4): 0.4 nM
solubility kinetic at 24 h [1]: 78.6 µg/mL (≈ 164 µM)
Kpuu (unbound brain-to-plasma partition coefficient) [2]: 0.41
efflux ratio at 120 min, 1 μM (MDR1): 8.1

C[C@@]12CC[C@@](c3cn4cc(C(=O)Nc5cccn(C6CC6)c5=O)c(OC5CCC5)cc4n3)(CO1)C2 (single isomer, unassigned) [Example 25]
IC50 (IRAK4): 0.3 nM
solubility kinetic at 24 h [1]: 66.7 µg/mL (≈ 141 µM)
Kpuu (unbound brain-to-plasma partition coefficient) [2]: 0.36
efflux ratio at 120 min, 1 μM (MDR1): 3.2

CC[C@@H](C)Oc1nc2nc(C34COC(C)(C3)C4)cn2cc1C(=O)Nc1cccn(C2CC2)c1=O (single isomer, unassigned) [Example 63]
IC50 (IRAK4): 0.8 nM
solubility kinetic at 24 h [1]: 67.1 µg/mL (≈ 145 µM)
Kpuu (unbound brain-to-plasma partition coefficient) [2]: 0.48
efflux ratio at 120 min, 1 μM (MDR1): 5.5

CC(C)Oc1c(C(=O)Nc2cccn(C3CC3)c2=O)cn2cc([C@@]34CC[C@@](C)(C3)OC4)nc2c1F (single isomer, unassigned) [Example 67]
IC50 (IRAK4): 1.3 nM
solubility kinetic at 24 h [1]: 48.8 µg/mL (≈ 102 µM)
Kpuu (unbound brain-to-plasma partition coefficient) [2]: 0.96
efflux ratio at 120 min, 1 μM (MDR1): 2.8

CC(C)Oc1nc2nc(C34COC(C)(C3)C4)cn2cc1C(=O)Nc1cccn([C@H]2CC2(C)C)c1=O (single isomer, unassigned) [Example 79]
IC50 (IRAK4): 0.7 nM
solubility kinetic at 24 h [1]: 45.7 µg/mL (≈ 95.7 µM)
Kpuu (unbound brain-to-plasma partition coefficient) [2]: 0.89
efflux ratio at 120 min, 1 μM (MDR1): 2.9

CC(C)Oc1nc2nc(C[C@@H]3CCOC3)cn2cc1C(=O)Nc1cccn(C2CC2)c1=O (single isomer, unassigned) [Example 109]
IC50 (IRAK4): 0.5 nM
solubility kinetic at 24 h [1]: 50.2 µg/mL (≈ 115 µM)
Kpuu (unbound brain-to-plasma partition coefficient) [2]: 0.25
efflux ratio at 120 min, 1 μM (MDR1): 7.1

CC(C)Oc1cc2nc([C@]34CC[C@](C)(C3)OC4)cn2cc1C(=O)Nc1cccn([C@H]2C[C@@H]2F)c1=O (single isomer, unassigned) [Example 119]
IC50 (IRAK4): 0.7 nM
solubility kinetic at 24 h [1]: 79 µg/mL (≈ 164 µM)
Kpuu (unbound brain-to-plasma partition coefficient) [2]: 0.73
efflux ratio at 120 min, 1 μM (MDR1): 4.2

CC(C)Oc1nc2nc([C@@]34CC[C@@](C)(C3)OC4)cn2cc1C(=O)Nc1cccn([C@H]2C[C@@H]2C)c1=O (single isomer, unassigned) [Example 149]
IC50 (IRAK4): 0.4 nM
solubility kinetic at 24 h [1]: 34.5 µg/mL (≈ 72.2 µM)
Kpuu (unbound brain-to-plasma partition coefficient) [2]: 1.34
efflux ratio at 120 min, 1 μM (MDR1): 2.8

CC(C)Oc1nc2nc([C@]34CC[C@](C)(C3)OC4)cn2cc1C(=O)Nc1cccn([C@H]2C[C@H]2C)c1=O (single isomer, unassigned) [Example 186, trifluoroacetate]
IC50 (IRAK4): 0.2 nM
solubility kinetic at 24 h [1]: 64.7 µg/mL
Kpuu (unbound brain-to-plasma partition coefficient) [2]: 0.32
efflux ratio at 120 min, 1 μM (MDR1): 10.8

CC(C)Oc1nc2nc(C34CCC(C)(C3)OC4)cn2cc1C(=O)Nc1cccn([C@H]2C[C@H]2C)c1=O (stereo in doubt) [Example 187, 7-isopropoxy-2-((1R,4S)-1-methyl-2-oxabicyclo[2.2.1]heptan-4-yl)-N-(1-((1S,2R)-2-methylcyclopropyl)-2-oxo-1,2-dihydropyridin-3-yl)imidazo[1,2-a]pyrimidine-6-carboxamide trifluoroacetate]
IC50 (IRAK4): 0.2 nM
solubility kinetic at 24 h [1]: 55.1 µg/mL
Kpuu (unbound brain-to-plasma partition coefficient) [2]: 0.19
efflux ratio at 120 min, 1 μM (MDR1): 10.9

Cc1cnc2c(NC(=O)c3cn4cc(C56COC(C)(C5)C6)nc4cc3OC(C)C)cnn2c1 [Comparator 1B, 7-isopropoxy-2-(1-methyl-2-oxabicyclo[2.1.1]hexan-4-yl)-N-(6-methylpyrazolo[1,5-a]pyrimidin-3-yl)imidazo[1,2-a]pyridine-6-carboxamide, reference compound]
IC50 (IRAK4): 0.2 nM
solubility kinetic at 24 h [1]: 0.3 µg/mL (≈ 0.672 µM)
Kpuu (unbound brain-to-plasma partition coefficient) [2]: 0.3
efflux ratio at 120 min, 1 μM (MDR1): 4.3

CC(C)Oc1cc2nc(C34COC(C)(C3)C4)cn2cc1C(=O)Nc1cccn(C)c1=O [Comparator 1D, 7-isopropoxy-N-(1-methyl-2-oxo-1,2-dihydropyridin-3-yl)-2-(1-methyl-2-oxabicyclo[2.1.1]hexan-4-yl)imidazo[1,2-a]pyridine-6-carboxamide, reference compound]
IC50 (IRAK4): 0.6 nM
solubility kinetic at 24 h [1]: 63.2 µg/mL (≈ 150 µM)
Kpuu (unbound brain-to-plasma partition coefficient) [2]: 0.9
efflux ratio at 120 min, 1 μM (MDR1): 8

CC(C)Oc1nc2nc([C@@]34CC[C@@](C)(C3)OC4)cn2cc1C(=O)Nc1cccn(C)c1=O [Comparator 4D, 7-isopropoxy-N-(1-methyl-2-oxo-1,2-dihydropyridin-3-yl)-2-((1S,4R)-1-methyl-2-oxabicyclo[2.2.1]heptan-4-yl)imidazo[1,2-a]pyrimidine-6-carboxamide, reference compound]
IC50 (IRAK4): 0.5 nM
solubility kinetic at 24 h [1]: 58.8 µg/mL (≈ 134 µM)
Kpuu (unbound brain-to-plasma partition coefficient) [2]: 0.2
efflux ratio at 120 min, 1 μM (MDR1): 5.6

Cc1cnc2c(NC(=O)c3cn4cc(C56CCC(C)(CC5)OC6)nc4nc3OC(C)C)cnn2c1 [Comparator 6B, 7-isopropoxy-2-(1-methyl-2-oxabicyclo[2.2.2]octan-4-yl)-N-(6-methylpyrazolo[1,5-a]pyrimidin-3-yl)imidazo[1,2-a]pyrimidine-6-carboxamide, reference compound]
IC50 (IRAK4): 0.2 nM
solubility kinetic at 24 h [1]: 7.2 µg/mL (≈ 15.1 µM)
Kpuu (unbound brain-to-plasma partition coefficient) [2]: 0
efflux ratio at 120 min, 1 μM (MDR1): 1.5

CC[C@H](C)Oc1nc2nc([C@]34CC[C@](C)(C3)OC4)cn2cc1C(=O)Nc1cccn(C2CC2)c1=O [Example 50, 7-((S)-sec-butoxy)-N-(1-cyclopropyl-2-oxo-1,2-dihydropyridin-3-yl)-2-((1R,4S)-1-methyl-2-oxabicyclo[2.2.1]heptan-4-yl)imidazo[1,2-a]pyrimidine-6-carboxamide]
IC50 (IRAK4): 0.5 nM
Kpuu (unbound brain-to-plasma partition coefficient) [2]: 0.66
efflux ratio at 120 min, 1 μM (MDR1): 2.9
